Data published in PubChem BioAssay (NCI).
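Test compounds were applied to cells in 96-well plates for 48 hours at 5 doses. GI50: concentration for 50% inhibition of growth. TGI: total growth inhibition.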

Tests used:
Assay in all cases: growth of human tumour cells (NCI), 48 h
NCI-H226 lung = tested on: NCI-H226 lung
HOP-62 NSCLC = tested on: HOP-62 NSCLC
HCT-116 colon = tested on: HCT-116 colon
OVCAR-4 ovarian = tested on: OVCAR-4 ovarian
NCI-H23 lung = tested on: NCI-H23 lung
SR leukemia = tested on: SR leukemia
A498 renal = tested on: A498 renal
NCI-H522 lung = tested on: NCI-H522 lung
PC-3 prostate = tested on: PC-3 prostate
SK-MEL-28 melanoma = tested on: SK-MEL-28 melanoma
SNB-19 CNS = tested on: SNB-19 CNS
MDA-MB-231 breast = tested on: MDA-MB-231 breast
BT-549 breast = tested on: BT-549 breast
RXF 393 renal = tested on: RXF 393 renal
MDA-MB-468 breast = tested on: MDA-MB-468 breast
OVCAR-3 ovarian = tested on: OVCAR-3 ovarian
NCI-H460 lung = tested on: NCI-H460 lung
MALME-3M melanoma = tested on: MALME-3M melanoma
M14 melanoma = tested on: M14 melanoma
HOP-92 NSCLC = tested on: HOP-92 NSCLC
RPMI-8226 leukemia = tested on: RPMI-8226 leukemia
CCRF-CEM leukemia = tested on: CCRF-CEM leukemia
T-47D breast = tested on: T-47D breast
HCC-2998 colon = tested on: HCC-2998 colon
EKVX NSCLC = tested on: EKVX NSCLC
OVCAR-5 ovarian = tested on: OVCAR-5 ovarian
HT29 colon = tested on: HT29 colon
A549 NSCLC = tested on: A549 NSCLC
MCF7 breast = tested on: MCF7 breast
U251 CNS = tested on: U251 CNS
ACHN renal = tested on: ACHN renal
SNB-75 CNS = tested on: SNB-75 CNS
IGROV1 ovarian = tested on: IGROV1 ovarian
TK-10 renal = tested on: TK-10 renal
MOLT-4 leukemia = tested on: MOLT-4 leukemia
HS 578T breast = tested on: HS 578T breast
NCI/ADR-RES ovarian = tested on: NCI/ADR-RES ovarian
UACC-257 melanoma = tested on: UACC-257 melanoma
SN12C renal = tested on: SN12C renal
SF-539 CNS = tested on: SF-539 CNS
MDA-MB-435 = tested on: MDA-MB-435
KM12 colon = tested on: KM12 colon
COLO 205 colon = tested on: COLO 205 colon
UO-31 renal = tested on: UO-31 renal
CAKI-1 renal = tested on: CAKI-1 renal
SK-OV-3 ovarian = tested on: SK-OV-3 ovarian
DU-145 prostate = tested on: DU-145 prostate
SK-MEL-5 melanoma = tested on: SK-MEL-5 melanoma
HCT-15 colon = tested on: HCT-15 colon
OVCAR-8 ovarian = tested on: OVCAR-8 ovarian
SK-MEL-2 melanoma = tested on: SK-MEL-2 melanoma
SF-268 CNS = tested on: SF-268 CNS
SW-620 colon = tested on: SW-620 colon
786-0 renal = tested on: 786-0 renal
HL-60(TB) leukemia = tested on: HL-60(TB) leukemia
UACC-62 melanoma = tested on: UACC-62 melanoma
SF-295 CNS = tested on: SF-295 CNS
K-562 leukemia = tested on: K-562 leukemia
LOX IMVI melanoma = tested on: LOX IMVI melanoma

How did the GI50 (NCI-H226 lung) turn out when COc1cc2c3c(n(CCCn4ccnc4)c(=O)c2cc1OC)-c1nc2c(cc1C3=O)OCO2 was run?
Its GI50 is 0.124 µM.

And the TGI (NCI-H226 lung)?
The TGI was greater than 100 µM.

And the GI50 (HOP-62 NSCLC)?
The GI50 was 0.0339 µM.

What about the TGI (HOP-62 NSCLC) of the same compound?
The TGI was greater than 100 µM.

And the GI50 (HCT-116 colon)?
Its GI50 is 0.169 µM.

What about the TGI (HCT-116 colon) of the same compound?
The TGI was greater than 100 µM.

What about the GI50 (OVCAR-4 ovarian) of the same compound?
Its GI50 is greater than 100 µM.

What about the TGI (OVCAR-4 ovarian) of the same compound?
The TGI was greater than 100 µM.

What about the GI50 (NCI-H23 lung) of the same compound?
The GI50 was 0.0442 µM.

And the TGI (NCI-H23 lung)?
Its TGI is 11.3 µM.

What about the GI50 (SR leukemia) of the same compound?
The GI50 was 0.0274 µM.

And the TGI (SR leukemia)?
The TGI was 24.5 µM.

And the GI50 (A498 renal)?
The GI50 was greater than 100 µM.

And the TGI (A498 renal)?
The TGI was greater than 100 µM.

And the GI50 (NCI-H522 lung)?
Its GI50 is 1.07 µM.

And the TGI (NCI-H522 lung)?
Its TGI is 37.6 µM.

What about the GI50 (PC-3 prostate) of the same compound?
Its GI50 is 32.2 µM.

What about the TGI (PC-3 prostate) of the same compound?
Its TGI is greater than 100 µM.

And the GI50 (SK-MEL-28 melanoma)?
The GI50 was greater than 100 µM.

What about the TGI (SK-MEL-28 melanoma) of the same compound?
Its TGI is greater than 100 µM.

And the GI50 (SNB-19 CNS)?
Its GI50 is 0.0685 µM.

And the TGI (SNB-19 CNS)?
The TGI was greater than 100 µM.

And the GI50 (MDA-MB-231 breast)?
Its GI50 is 45.1 µM.

What about the TGI (MDA-MB-231 breast) of the same compound?
The TGI was greater than 100 µM.

And the GI50 (BT-549 breast)?
Its GI50 is 0.356 µM.

And the TGI (BT-549 breast)?
Its TGI is 26.3 µM.

And the GI50 (RXF 393 renal)?
Its GI50 is 0.335 µM.

What about the TGI (RXF 393 renal) of the same compound?
Its TGI is greater than 100 µM.

And the GI50 (MDA-MB-468 breast)?
Its GI50 is 0.028 µM.

What about the TGI (MDA-MB-468 breast) of the same compound?
The TGI was 0.115 µM.

What about the GI50 (OVCAR-3 ovarian) of the same compound?
The GI50 was 38.5 µM.

And the TGI (OVCAR-3 ovarian)?
Its TGI is greater than 100 µM.

What about the GI50 (NCI-H460 lung) of the same compound?
The GI50 was 0.0325 µM.

And the TGI (NCI-H460 lung)?
The TGI was greater than 36.4 µM.

What about the GI50 (MALME-3M melanoma) of the same compound?
The GI50 was 13.1 µM.

And the TGI (MALME-3M melanoma)?
The TGI was greater than 100 µM.

What about the GI50 (M14 melanoma) of the same compound?
Its GI50 is 0.0554 µM.

What about the TGI (M14 melanoma) of the same compound?
Its TGI is greater than 69.3 µM.

And the GI50 (HOP-92 NSCLC)?
Its GI50 is greater than 47.1 µM.

And the TGI (HOP-92 NSCLC)?
The TGI was greater than 100 µM.

What about the GI50 (RPMI-8226 leukemia) of the same compound?
Its GI50 is 0.852 µM.

What about the TGI (RPMI-8226 leukemia) of the same compound?
The TGI was greater than 100 µM.

What about the GI50 (CCRF-CEM leukemia) of the same compound?
Its GI50 is 0.028 µM.

And the GI50 (T-47D breast)?
Its GI50 is 0.0376 µM.

And the TGI (T-47D breast)?
The TGI was greater than 100 µM.

And the GI50 (HCC-2998 colon)?
The GI50 was 19.4 µM.

What about the TGI (HCC-2998 colon) of the same compound?
Its TGI is greater than 100 µM.

And the GI50 (EKVX NSCLC)?
The GI50 was greater than 66.4 µM.

And the TGI (EKVX NSCLC)?
Its TGI is greater than 100 µM.

What about the GI50 (OVCAR-5 ovarian) of the same compound?
The GI50 was greater than 36.7 µM.

What about the TGI (OVCAR-5 ovarian) of the same compound?
Its TGI is greater than 100 µM.

What about the GI50 (HT29 colon) of the same compound?
The GI50 was 0.637 µM.

What about the TGI (HT29 colon) of the same compound?
The TGI was greater than 100 µM.

What about the GI50 (A549 NSCLC) of the same compound?
The GI50 was 3.31 µM.

What about the TGI (A549 NSCLC) of the same compound?
Its TGI is greater than 100 µM.

What about the GI50 (MCF7 breast) of the same compound?
Its GI50 is 0.0247 µM.

What about the TGI (MCF7 breast) of the same compound?
The TGI was 16.3 µM.

What about the GI50 (U251 CNS) of the same compound?
Its GI50 is 0.0621 µM.

And the TGI (U251 CNS)?
Its TGI is greater than 100 µM.

What about the GI50 (ACHN renal) of the same compound?
The GI50 was 0.0389 µM.

And the GI50 (SNB-75 CNS)?
The GI50 was 0.03 µM.

And the TGI (SNB-75 CNS)?
Its TGI is greater than 100 µM.

What about the GI50 (IGROV1 ovarian) of the same compound?
The GI50 was greater than 52 µM.

And the TGI (IGROV1 ovarian)?
The TGI was greater than 100 µM.

What about the GI50 (TK-10 renal) of the same compound?
Its GI50 is greater than 100 µM.

What about the TGI (TK-10 renal) of the same compound?
The TGI was greater than 100 µM.

And the GI50 (MOLT-4 leukemia)?
Its GI50 is 0.0356 µM.

What about the TGI (MOLT-4 leukemia) of the same compound?
The TGI was greater than 100 µM.

And the GI50 (HS 578T breast)?
The GI50 was greater than 100 µM.

And the TGI (HS 578T breast)?
The TGI was greater than 100 µM.

And the GI50 (NCI/ADR-RES ovarian)?
Its GI50 is greater than 100 µM.

What about the TGI (NCI/ADR-RES ovarian) of the same compound?
Its TGI is greater than 100 µM.

What about the TGI (UACC-257 melanoma) of the same compound?
Its TGI is greater than 100 µM.

What about the GI50 (SN12C renal) of the same compound?
The GI50 was 0.134 µM.

What about the TGI (SN12C renal) of the same compound?
The TGI was greater than 100 µM.

And the GI50 (SF-539 CNS)?
Its GI50 is 0.0363 µM.

What about the TGI (SF-539 CNS) of the same compound?
Its TGI is 0.525 µM.

And the GI50 (MDA-MB-435)?
The GI50 was 4.7 µM.

What about the TGI (MDA-MB-435) of the same compound?
Its TGI is greater than 100 µM.

And the GI50 (KM12 colon)?
The GI50 was greater than 100 µM.

What about the TGI (KM12 colon) of the same compound?
Its TGI is greater than 100 µM.

And the GI50 (COLO 205 colon)?
The GI50 was 12.6 µM.

And the TGI (COLO 205 colon)?
Its TGI is greater than 100 µM.

What about the GI50 (UO-31 renal) of the same compound?
Its GI50 is 0.197 µM.

What about the TGI (UO-31 renal) of the same compound?
Its TGI is greater than 100 µM.

And the GI50 (CAKI-1 renal)?
Its GI50 is 0.04 µM.

What about the TGI (CAKI-1 renal) of the same compound?
The TGI was greater than 100 µM.

What about the GI50 (SK-OV-3 ovarian) of the same compound?
Its GI50 is 0.0459 µM.

And the TGI (SK-OV-3 ovarian)?
The TGI was greater than 100 µM.

What about the GI50 (DU-145 prostate) of the same compound?
Its GI50 is 0.0616 µM.

What about the TGI (DU-145 prostate) of the same compound?
Its TGI is greater than 100 µM.

What about the GI50 (SK-MEL-5 melanoma) of the same compound?
Its GI50 is 0.07 µM.

And the TGI (SK-MEL-5 melanoma)?
The TGI was 4.63 µM.

What about the GI50 (HCT-15 colon) of the same compound?
The GI50 was 13.1 µM.

What about the TGI (HCT-15 colon) of the same compound?
Its TGI is greater than 100 µM.

And the GI50 (OVCAR-8 ovarian)?
Its GI50 is 0.803 µM.

What about the TGI (OVCAR-8 ovarian) of the same compound?
The TGI was greater than 100 µM.

What about the GI50 (SK-MEL-2 melanoma) of the same compound?
Its GI50 is greater than 100 µM.

And the TGI (SK-MEL-2 melanoma)?
Its TGI is greater than 100 µM.

What about the GI50 (SF-268 CNS) of the same compound?
The GI50 was 0.0769 µM.

And the TGI (SF-268 CNS)?
The TGI was greater than 100 µM.

What about the GI50 (SW-620 colon) of the same compound?
The GI50 was 0.207 µM.

What about the TGI (SW-620 colon) of the same compound?
The TGI was greater than 100 µM.

What about the GI50 (786-0 renal) of the same compound?
Its GI50 is 0.105 µM.

What about the GI50 (HL-60(TB) leukemia) of the same compound?
Its GI50 is 0.0485 µM.

What about the TGI (HL-60(TB) leukemia) of the same compound?
The TGI was greater than 100 µM.

And the GI50 (UACC-62 melanoma)?
Its GI50 is 0.0359 µM.

What about the TGI (UACC-62 melanoma) of the same compound?
The TGI was greater than 100 µM.

What about the GI50 (SF-295 CNS) of the same compound?
Its GI50 is 0.0351 µM.

And the TGI (SF-295 CNS)?
The TGI was 12.8 µM.

And the GI50 (K-562 leukemia)?
Its GI50 is 0.0742 µM.

What about the TGI (K-562 leukemia) of the same compound?
The TGI was greater than 100 µM.

And the GI50 (LOX IMVI melanoma)?
Its GI50 is 0.0448 µM.

And the TGI (LOX IMVI melanoma)?
The TGI was 5.83 µM.
